# Measurements from patent publication US20110262425A1, “THERAPEUTIC AGENT FOR MLL LEUKEMIA AND MOZ LEUKEMIA OF WHICH MOLECULAR TARGET IS M-CSF RECEPTOR, AND USE THEREOF” (NATIONAL CANCER CENTER, priority 2007, published 2011).
# Entries after “also recorded” stand apart in the source; their conditions may differ. Structures can show the parent of a compound that is named as a salt.
# Legend:
# Assay type in all cases: in vivo
# N-MYC-induced AML = assay: Effect of Imatinib on N-MYC-induced AML in mice; conditions: Imatinib 100 mg/kg orally twice a day
# From the text: (§1) FIG. 10 (A-D) BM cells (10^5 cells) from AML mice with MOZ-TIF2 (A), MLL-AF10 (B), or N-MYC (C) were transplanted into irradiated mice. […] (A-C) show the results of analyzing leukemia-free survival of the mice. (D) depicts the photograph showing the result of analyzing spleen sizes of the MOZ-TIF2-introduced mice three weeks after transplantation.
# MLL-AF10-induced AML = assay: Effect of Imatinib on MLL-AF10-induced AML in mice; conditions: Imatinib 100 mg/kg orally twice a day
# From the text: as §1
# MOZ-TIF2-induced AML = assay: Effect of Imatinib on MOZ-TIF2-induced AML in mice; conditions: Imatinib 100 mg/kg orally twice a day
# From the text: as §1
# M-CSFR-expressing cells = assay: Ablation of M-CSFR-expressing cells by AP20187 in MOZ-TIF2-induced AML mice (FKBP-Fas suicide gene transgenic BM cells, secondary transplantation); conditions: then 1 mg/kg every three days
# Procedure: FIG. 1 depicts the result of M-CSFR expression in bone marrow cells of MOZ leukemogenesis mice. (A) BM cells from MOZ-TIF2-induced AML mice were analyzed by FACS for expression of GFP and M-CSFR. (B) M-CSFR^high cells and M-CSFR^low/- cells were sorted by flow cytometer. MOZ-TIF2 expression in these cells was investigated by immunoblot analysis using an anti-MOZ antibody. (C, D) Indicated numbers of M-CSFR^high cells (C) and M-CSFR^low/- cells (D) were transplanted into mice irradiated beforehand with a lethal dose of radiation and survival from leukemia onset was investigated. (E) Structure of genes for the M-CSFR promoter, EGFP, the NGFR-FKBP-Fas suicide construct, and activation mechanism of NGFR-FKBP-Fas. In transgenic (Tg) mice, conditional ablation of cells highly expressing M-CSFR can be induced by exposure to an AP20187 dimerizer. (F-I) AML mice were induced by transplantation of BM cells from Tg mice infected with MOZ-TIF2, and 10^5 BM cells from AML Tg mice were secondary transplanted into wild-type mice lethally-irradiated beforehand. The secondary-transplanted mice were exposed to AP20187 seven days after transplantation. Expression of GFP and M-CSFR in BM cells (F, G) and the size of spleens (H) of normal Tg mice (F), and of untreated and AP20187-treated secondary-transplanted mice (G) were analyzed four weeks after transplantation. Leukemia-free survival rate of the untreated and AP20187-treated secondary-transplanted mice were investigated (I).
# In the transgenic mice, expression levels of endogenous M-CSFR were proportional to those of EGFP and FKBP-Fas (FIG. 1F), and conditional ablation of M-CSFR-expressing cells can be induced by injection of the AP20187 dimerizer (Burnett, S. H. et al., J Leukoc Biol (2004) 75: 612-23). c-KIT^+ BM cells of the transgenic mice were infected with the MOZ-TIF2 retrovirus, and transplanted into lethally-irradiated wild-type mice. These mice developed AML about two months after transplantation, and their BM cells (10^5 cells/mouse) were transplanted into secondary recipient mice. […]
SMILES,progress of AML (leukemia-free survival) (N-MYC-induced AML),onset of AML (leukemia-free survival) (MLL-AF10-induced AML),MOZ-TIF2-induced splenomegaly (MOZ-TIF2-induced AML; three weeks after transplantation),onset of AML (leukemia-free survival) (MOZ-TIF2-induced AML; MOZ-TIF2),"development of AML (leukemia-free survival) (M-CSFR-expressing cells; AP20187 10 mg/kg i.v. daily for 5 days, 5-6 weeks after transplantation)","M-CSFR^high cells in BM (M-CSFR-expressing cells; AP20187 10 mg/kg intravenously daily for 5 days, from seven days after transplantation, three weeks after transplantation)","splenomegaly (M-CSFR-expressing cells; AP20187 10 mg/kg intravenously daily for 5 days, three weeks after transplantation)"
"Cc1ccc(NC(=O)c2ccc(CN3CCN(C)CC3)cc2)cc1Nc1nccc(-c2cccnc2)n1 [Imatinib, Imatinib mesylate]",did not affect the progress,slowed onsets of AML; also recorded: delaying the leukemia onset,inhibited,slowed onsets of AML; also recorded: delaying the leukemia onset,,,
CC[C@H](C(=O)N1CCCC[C@H]1C(=O)O[C@H](CCc1ccc(OC)c(OC)c1)c1cccc(OCC(=O)NCC(CNC(=O)COc2cccc([C@@H](CCc3ccc(OC)c(OC)c3)OC(=O)[C@@H]3CCCCN3C(=O)[C@@H](CC)c3cc(OC)c(OC)c(OC)c3)c2)CN(C)C)c1)c1cc(OC)c(OC)c(OC)c1 [AP20187],,,,,"suppressed; also recorded: none of the AP20187-treated mice, developed AML",neither M-CSFR^high cells nor splenomegaly were detected,suppressed; also recorded: neither M-CSFR^high cells nor splenomegaly were detected
